Measurements taken from patent US20140194392A1 (priority 2013, published 2014).
pEC50, pIC50: −log10 of the molar value.

Experiments:
[1] = biological target: NA of influenza NIBRG14 (H5N1) (Influenza A virus, UniProt Q6DPL2); format: biochemical
Bac-NA^WT = Bac-NA^WT (Influenza A virus, UniProt Q6DPL2); format: biochemical
[2] = system: influenza A/WSN/33 (H1N1); test: microbe, parasite or virus in culture; format: cell-based; settings: MDCK, read-out: EC50 for viral plaque formation
A/Udorn/72 (H3N2) = test: microbe, parasite or virus in culture; format: cell-based, influenza A/Udorn/72 (H3N2); settings: Influenza A virus, H3N2, MDCK, read-out: EC50 for viral plaque formation
A/WSN/33 = format: cell-based, influenza A/WSN/33 (H1N1)
A/WSN/33 (H1N1) = format: cell-based, influenza A/WSN/33 (H1N1)

Chain of NA of influenza NIBRG14 (H5N1) (Q6DPL2 whole entry, looked up): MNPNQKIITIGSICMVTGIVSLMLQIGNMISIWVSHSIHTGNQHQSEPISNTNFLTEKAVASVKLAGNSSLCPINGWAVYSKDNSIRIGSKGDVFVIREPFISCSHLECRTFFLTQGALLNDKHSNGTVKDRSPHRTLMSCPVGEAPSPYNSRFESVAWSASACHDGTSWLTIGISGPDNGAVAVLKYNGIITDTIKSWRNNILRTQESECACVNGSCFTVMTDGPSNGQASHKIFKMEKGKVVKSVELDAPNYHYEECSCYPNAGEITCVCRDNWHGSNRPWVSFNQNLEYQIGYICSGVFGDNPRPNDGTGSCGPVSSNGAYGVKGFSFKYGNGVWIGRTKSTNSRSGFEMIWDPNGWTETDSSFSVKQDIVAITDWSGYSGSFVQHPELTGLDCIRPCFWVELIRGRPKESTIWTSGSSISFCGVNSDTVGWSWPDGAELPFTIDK
Chain of Bac-NA^WT (Q6DPL2 63-449 limits assumed): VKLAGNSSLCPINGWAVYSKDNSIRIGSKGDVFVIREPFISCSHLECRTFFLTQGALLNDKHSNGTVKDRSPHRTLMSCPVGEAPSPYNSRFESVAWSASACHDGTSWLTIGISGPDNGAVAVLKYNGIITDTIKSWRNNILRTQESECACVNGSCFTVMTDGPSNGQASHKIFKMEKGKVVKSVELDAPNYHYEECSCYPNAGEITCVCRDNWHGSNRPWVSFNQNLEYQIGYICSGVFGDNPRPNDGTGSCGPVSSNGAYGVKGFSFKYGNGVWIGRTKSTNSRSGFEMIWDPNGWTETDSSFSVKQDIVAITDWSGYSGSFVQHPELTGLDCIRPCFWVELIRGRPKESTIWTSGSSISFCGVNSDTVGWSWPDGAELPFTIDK

`Nc1c(S(=O)(=O)O)cc(Nc2cccc(S(=O)(=O)CCOS(=O)(=O)O)c2)c2c1C(=O)c1ccccc1C2=O` [RB19, remazol brilliant blue R] was tested, and the pIC50 [1] was 5.24, the pIC50 (Bac-NA^WT) was 5.47 and the pEC50 [2] was 5.57. The pEC50 (A/Udorn/72 (H3N2)) was 5.55, the influenza-induced cytopathic effect (A/WSN/33) was “inhibited the influenza-induced cytopathic effect” and the “virus yields (fluorogenic signal of NA activity)” value (A/WSN/33 (H1N1)) was “dramatically reduced virus yields”.
